Measurements from patent US10906938B2, “Cell epitopes and combination of cell epitopes for use in the immunotherapy of myeloma and other cancers” (Immatics Biotechnologies GmbH, priority 2015, dated 2021).

System: U266 cells
Assay: HLA class I ligand presentation upon carfilzomib treatment on U266 cells (LC-MS/MS)
Type: cell-based, human
Set-up: key to modulation upon carfilzomib-treatment 24 #1 / modulation upon carfilzomib-treatment 24 #2 / modulation upon carfilzomib-treatment 24 #3 / modulation upon carfilzomib-treatment 48 #1 / modulation upon carfilzomib-treatment 48 #2 / modulation upon carfilzomib-treatment 48 #3: −1: significantly down-modulated; 0: not signifcant/not detected; 1: significantly up-modulated
Conditions: U266 cells, vs mock-treated controls; for modulation upon carfilzomib-treatment 24 #1 / modulation upon carfilzomib-treatment 24 #2 / modulation upon carfilzomib-treatment 24 #3: 24 h after carfilzomib treatment (100 nM, 1 h); for modulation upon carfilzomib-treatment 24 #1 / modulation upon carfilzomib-treatment 48 #1: biological replicate #1; for modulation upon carfilzomib-treatment 24 #2 / modulation upon carfilzomib-treatment 48 #2: biological replicate #2; for modulation upon carfilzomib-treatment 24 #3 / modulation upon carfilzomib-treatment 48 #3: biological replicate #3; for modulation upon carfilzomib-treatment 48 #1 / modulation upon carfilzomib-treatment 48 #2 / modulation upon carfilzomib-treatment 48 #3: 48 h after carfilzomib treatment (100 nM, 1 h)
Method: HLA class I and II molecules were isolated using standard immunoaffinity purification as described using the pan-HLA class I specific mAb W6/32, the pan-HLA class II specific mAb T039 and the HLA-DR specific mAB L243 (produced in house).
HLA ligand extracts were analyzed in 5 technical replicates as described previously. In brief, peptide samples were separated by nanoflow HPLC (RSLCnano, ThermoFisher) using a 50 μm×25 cm PepMap RSLC column (Thermo Fisher) and a gradient ranging from 2.4 to 32.0% acetonitrile over the course of 90 min. Eluting peptides were analyzed in an online coupled LTQ Orbitrap XL mass spectrometer (Thermo Fisher) using a top 5 CID (collision induced dissociation) fragmentation method.
Data processing was performed as described previously. In brief, the Mascot search engine (Mascot 2.2.04; Matrix Science, London, UK) was implemented to search the human proteome as comprised in the Swiss-Prot database (20,279 reviewed protein sequences, September 2013) without enzymatic restriction. Potential mutated HLA ligands were searched implementing a database containing the human proteome concatenated with proteins containing single amino acid variants (SAVs) listed in the COSMIC database (http://cancer.sanger.ac.uk/cosmic/). Only recurrent SAVs described in 2 or more samples of hematological origin were included. Oxidized methionine was allowed as a dynamic modification. The false discovery rate was estimated using the Percolator algorithm and set to 5%. Peptide lengths were limited to 8-12 amino acids for HLA class I and 12-25 amino acids for HLA class II. Protein inference was disabled, allowing for multiple protein annotations of peptides. HLA annotation was performed using SYFPEITHI [46] or an extended in-house database. Experimental validation of peptide identifications and HLA annotations was performed by mass spectrometric and functional characterization of synthetic peptides for a subset of peptides.
The inventors quantitatively assessed HLA class I ligand presentation during proteasome inhibitor therapy. Observed was a considerable plasticity of the HLA class I ligandome after treatment with carfilzomib with 17.9±1.1% of MM.1S ligands and 11.2±0.7% of U266 ligands (mean of three biological replicates ±s.d.) showing significant modulation (fold-change ≥4, Po0.01 after Benjamini-Hochberg correction) at t24 h compared with mock-treated controls. Briefly, Cultured MCLs (MM.1S and U266) and primary myeloma samples were incubated with carfilzomib (100 nM, Kyprolis®, available, e.g., from Onyx Pharmaceuticals, Inc.) as an example for a proteasome inhibitor for a 1-h period, followed by three washes in PBS (Gibco) and recultured for additional 24 or 48 h. Controls were incubated with vehicle control (glucose 5%) for 1 h, followed by identical washing and incubation for 24 or 48 h. Experiments were conducted in three biological replicates where indicated.

With APFQGDQRSL the “modulation upon carfilzomib-treatment 24 #1” value was 0, the “modulation upon carfilzomib-treatment 24 #2” value was 1 and the “modulation upon carfilzomib-treatment 24 #3” value was 1. For the same sequence, the “modulation upon carfilzomib-treatment 48 #1” value was 0, the “modulation upon carfilzomib-treatment 48 #2” value was 1 and the “modulation upon carfilzomib-treatment 48 #3” value was 0.
For GEVQDLLVRL, the “modulation upon carfilzomib-treatment 24 #1” value was 0, the “modulation upon carfilzomib-treatment 24 #2” value was 0 and the “modulation upon carfilzomib-treatment 24 #3” value was 0. The “modulation upon carfilzomib-treatment 48 #1” value was 0, the “modulation upon carfilzomib-treatment 48 #2” value was 0 and the “modulation upon carfilzomib-treatment 48 #3” value was 0.
For SPRLSLLYL, the “modulation upon carfilzomib-treatment 24 #1” value was 0, the “modulation upon carfilzomib-treatment 24 #2” value was 0 and the “modulation upon carfilzomib-treatment 24 #3” value was 0. For the same sequence, the “modulation upon carfilzomib-treatment 48 #1” value was 0, the “modulation upon carfilzomib-treatment 48 #2” value was 0 and the “modulation upon carfilzomib-treatment 48 #3” value was 0.
PELGPLPAL was tested, and the “modulation upon carfilzomib-treatment 24 #1” value was 0, the “modulation upon carfilzomib-treatment 24 #2” value was 0 and the “modulation upon carfilzomib-treatment 24 #3” value was 0. For the same sequence, the “modulation upon carfilzomib-treatment 48 #1” value was 0, the “modulation upon carfilzomib-treatment 48 #2” value was 0 and the “modulation upon carfilzomib-treatment 48 #3” value was 0.
In the case of APRHPSTNSLL, the “modulation upon carfilzomib-treatment 24 #1” value was 0, the “modulation upon carfilzomib-treatment 24 #2” value was 1 and the “modulation upon carfilzomib-treatment 24 #3” value was 0. The “modulation upon carfilzomib-treatment 48 #1” value was 1, the “modulation upon carfilzomib-treatment 48 #2” value was 1 and the “modulation upon carfilzomib-treatment 48 #3” value was 0.
GETAFAFHL was tested, and the “modulation upon carfilzomib-treatment 24 #1” value was 0, the “modulation upon carfilzomib-treatment 24 #2” value was 0 and the “modulation upon carfilzomib-treatment 24 #3” value was 0. The “modulation upon carfilzomib-treatment 48 #1” value was 0, the “modulation upon carfilzomib-treatment 48 #2” value was 0 and the “modulation upon carfilzomib-treatment 48 #3” value was 0.
With SESLPVRTL the “modulation upon carfilzomib-treatment 24 #1” value was 0, the “modulation upon carfilzomib-treatment 24 #2” value was 0 and the “modulation upon carfilzomib-treatment 24 #3” value was 0. The “modulation upon carfilzomib-treatment 48 #1” value was 0, the “modulation upon carfilzomib-treatment 48 #2” value was 0 and the “modulation upon carfilzomib-treatment 48 #3” value was 0.
For KAMEAASSL, the “modulation upon carfilzomib-treatment 24 #1” value was −1, the “modulation upon carfilzomib-treatment 24 #2” value was −1 and the “modulation upon carfilzomib-treatment 24 #3” value was −1. For the same sequence, the “modulation upon carfilzomib-treatment 48 #1” value was −1, the “modulation upon carfilzomib-treatment 48 #2” value was −1 and the “modulation upon carfilzomib-treatment 48 #3” value was −1.
For RVFPYSVFY, the “modulation upon carfilzomib-treatment 24 #1” value was −1, the “modulation upon carfilzomib-treatment 24 #2” value was 0 and the “modulation upon carfilzomib-treatment 24 #3” value was 0. The “modulation upon carfilzomib-treatment 48 #1” value was −1, the “modulation upon carfilzomib-treatment 48 #2” value was −1 and the “modulation upon carfilzomib-treatment 48 #3” value was −1.
With REEGTPLTL the “modulation upon carfilzomib-treatment 24 #1” value was 0, the “modulation upon carfilzomib-treatment 24 #2” value was 0 and the “modulation upon carfilzomib-treatment 24 #3” value was 0. For the same sequence, the “modulation upon carfilzomib-treatment 48 #1” value was 0, the “modulation upon carfilzomib-treatment 48 #2” value was 0 and the “modulation upon carfilzomib-treatment 48 #3” value was 0.
In the case of RPGPPTRPL, the “modulation upon carfilzomib-treatment 24 #1” value was 0, the “modulation upon carfilzomib-treatment 24 #2” value was 0 and the “modulation upon carfilzomib-treatment 24 #3” value was 0. For the same sequence, the “modulation upon carfilzomib-treatment 48 #1” value was 0, the “modulation upon carfilzomib-treatment 48 #2” value was 0 and the “modulation upon carfilzomib-treatment 48 #3” value was 0.
For RVNKVIIGTK, the “modulation upon carfilzomib-treatment 24 #1” value was 0, the “modulation upon carfilzomib-treatment 24 #2” value was 0 and the “modulation upon carfilzomib-treatment 24 #3” value was 0. For the same sequence, the “modulation upon carfilzomib-treatment 48 #1” value was 0, the “modulation upon carfilzomib-treatment 48 #2” value was 0 and the “modulation upon carfilzomib-treatment 48 #3” value was 0.
For SRGDFVVEY, the “modulation upon carfilzomib-treatment 24 #1” value was 0, the “modulation upon carfilzomib-treatment 24 #2” value was −1 and the “modulation upon carfilzomib-treatment 24 #3” value was 0. The “modulation upon carfilzomib-treatment 48 #1” value was 0, the “modulation upon carfilzomib-treatment 48 #2” value was 0 and the “modulation upon carfilzomib-treatment 48 #3” value was −1.
SVYSPVKKK was tested, and the “modulation upon carfilzomib-treatment 24 #1” value was 0, the “modulation upon carfilzomib-treatment 24 #2” value was 0 and the “modulation upon carfilzomib-treatment 24 #3” value was −1. The “modulation upon carfilzomib-treatment 48 #1” value was 0, the “modulation upon carfilzomib-treatment 48 #2” value was 0 and the “modulation upon carfilzomib-treatment 48 #3” value was 0.
SPYLRPLTL was tested, and the “modulation upon carfilzomib-treatment 24 #1” value was 0, the “modulation upon carfilzomib-treatment 24 #2” value was 0 and the “modulation upon carfilzomib-treatment 24 #3” value was 0. For the same sequence, the “modulation upon carfilzomib-treatment 48 #1” value was 0, the “modulation upon carfilzomib-treatment 48 #2” value was 0 and the “modulation upon carfilzomib-treatment 48 #3” value was 0.
In the case of LPPPPHVPL, the “modulation upon carfilzomib-treatment 24 #1” value was 0, the “modulation upon carfilzomib-treatment 24 #2” value was 0 and the “modulation upon carfilzomib-treatment 24 #3” value was 0. For the same sequence, the “modulation upon carfilzomib-treatment 48 #1” value was 0, the “modulation upon carfilzomib-treatment 48 #2” value was 0 and the “modulation upon carfilzomib-treatment 48 #3” value was 0.
In the case of FLWDEGFHQL, the “modulation upon carfilzomib-treatment 24 #1” value was 0, the “modulation upon carfilzomib-treatment 24 #2” value was 0 and the “modulation upon carfilzomib-treatment 24 #3” value was 0. For the same sequence, the “modulation upon carfilzomib-treatment 48 #1” value was 0, the “modulation upon carfilzomib-treatment 48 #2” value was 0 and the “modulation upon carfilzomib-treatment 48 #3” value was 0.
For GPRPITQSEL, the “modulation upon carfilzomib-treatment 24 #1” value was 0, the “modulation upon carfilzomib-treatment 24 #2” value was 0 and the “modulation upon carfilzomib-treatment 24 #3” value was 0. The “modulation upon carfilzomib-treatment 48 #1” value was 0, the “modulation upon carfilzomib-treatment 48 #2” value was 0 and the “modulation upon carfilzomib-treatment 48 #3” value was 0.
In the case of KILKPVKKK, the “modulation upon carfilzomib-treatment 24 #1” value was 0, the “modulation upon carfilzomib-treatment 24 #2” value was 0 and the “modulation upon carfilzomib-treatment 24 #3” value was 0. For the same sequence, the “modulation upon carfilzomib-treatment 48 #1” value was 0, the “modulation upon carfilzomib-treatment 48 #2” value was 0 and the “modulation upon carfilzomib-treatment 48 #3” value was 0.
For YLYITKVLK, the “modulation upon carfilzomib-treatment 24 #1” value was 0, the “modulation upon carfilzomib-treatment 24 #2” value was 0 and the “modulation upon carfilzomib-treatment 24 #3” value was 0. For the same sequence, the “modulation upon carfilzomib-treatment 48 #1” value was 0, the “modulation upon carfilzomib-treatment 48 #2” value was 0 and the “modulation upon carfilzomib-treatment 48 #3” value was 0.
With SPALKRLDL the “modulation upon carfilzomib-treatment 24 #1” value was 0, the “modulation upon carfilzomib-treatment 24 #2” value was 0 and the “modulation upon carfilzomib-treatment 24 #3” value was 0. For the same sequence, the “modulation upon carfilzomib-treatment 48 #1” value was 0, the “modulation upon carfilzomib-treatment 48 #2” value was 0 and the “modulation upon carfilzomib-treatment 48 #3” value was 0.
IESHPDNAL was tested, and the “modulation upon carfilzomib-treatment 24 #1” value was 0, the “modulation upon carfilzomib-treatment 24 #2” value was 0 and the “modulation upon carfilzomib-treatment 24 #3” value was 0. For the same sequence, the “modulation upon carfilzomib-treatment 48 #1” value was 0, the “modulation upon carfilzomib-treatment 48 #2” value was 0 and the “modulation upon carfilzomib-treatment 48 #3” value was 0.
For ILRDGITAGK, the “modulation upon carfilzomib-treatment 24 #1” value was 0, the “modulation upon carfilzomib-treatment 24 #2” value was 0 and the “modulation upon carfilzomib-treatment 24 #3” value was 0. The “modulation upon carfilzomib-treatment 48 #1” value was 0, the “modulation upon carfilzomib-treatment 48 #2” value was 0 and the “modulation upon carfilzomib-treatment 48 #3” value was 0.
KLSSLIILM was tested, and the “modulation upon carfilzomib-treatment 24 #1” value was 0, the “modulation upon carfilzomib-treatment 24 #2” value was 0 and the “modulation upon carfilzomib-treatment 24 #3” value was 0. The “modulation upon carfilzomib-treatment 48 #1” value was 0, the “modulation upon carfilzomib-treatment 48 #2” value was 0 and the “modulation upon carfilzomib-treatment 48 #3” value was 0.
With KLPLPLPPRL the “modulation upon carfilzomib-treatment 24 #1” value was 0, the “modulation upon carfilzomib-treatment 24 #2” value was 0 and the “modulation upon carfilzomib-treatment 24 #3” value was 0. For the same sequence, the “modulation upon carfilzomib-treatment 48 #1” value was 0, the “modulation upon carfilzomib-treatment 48 #2” value was 0 and the “modulation upon carfilzomib-treatment 48 #3” value was 0.
KAVNPGRSL was tested, and the “modulation upon carfilzomib-treatment 24 #1” value was 0, the “modulation upon carfilzomib-treatment 24 #2” value was 0 and the “modulation upon carfilzomib-treatment 24 #3” value was 0. The “modulation upon carfilzomib-treatment 48 #1” value was 0, the “modulation upon carfilzomib-treatment 48 #2” value was 0 and the “modulation upon carfilzomib-treatment 48 #3” value was 0.
